Where two headings read alike, the source gives them in different places. Each block holds one compound with its values, some of them ahead of it.
Assays:
Assay type in all cases: cell-based
[1] = molecular target: T1, human EAAT2 (Homo sapiens, UniProt P43004); assay: inhibition of [3H]-L-glutamate uptake in COS-7 cells expressing EAAT2; conditions: for inhibition of glutamate uptake (in words), EAAT2: COS cell culture
T1 construct: expressed in transfected cells; host or cells: COS-7 cells, pCMV5 construct, DEAE-dextran transient transfection
From the text: (§1) DNA fragments comprising the coding sequences of the novel glutamate transporter genes of the invention were excised from the POTV constructs described in Example 3 and subcloned into the mammalian expression plasmid pCMV5 (Anderson et al., 1989, J. Biol. Chem. 264: 8222-8229). These mammalian expression constructs were used for transient expression assays of glutamate transporter protein function after transfection of each of these constructs into COS-7 cells (Gluzman, 1981, Cell 23: 175-182).
(§2) Each of the pCMV5 constructs corresponding to EAAT1, EAAT2 and EAAT3 were introduced into COS-7 cells by DEAE-dextran facilitated transfection (see Sambrook et al., ibid.). Two day following transfection, the transfected cells were washed three times in phosphate-buffered saline (PBS) and then incubated with a mixture of radiolabeled amino acid ([^3H]-L-glutamate or [^3H]-D-aspartate; Dupont-NEN) and non-radiolabeled amino acid for 10 min. After incubation, the cells were washed three times with ice-cold PBS, solubilized with a solution of 0.1% sodium dodecyl sulfate (SDS) and the amount of radioactivity associated with the cells determined using standard liquid scintillation counting methods.
(§3) COS-7 cell cultures transformed with pCMVS-human glutamate transporter constructs as described in Example 4 were used to characterize the pharmacological properties of each of these transporter proteins relative to a variety of known glutamate transporter inhibitors. These assays were performed essentially as described in Example 4, with the exception that varying amounts of each of a number of known inhibitor compounds were included in the incubations.
(§4) In these experiments, uptake of 1 μM of […] was determined in the presence of the indicated amounts of each of the inhibitors.

[2] = molecular target: T2, human EAAT1 (Homo sapiens, UniProt P43003); assay: inhibition of [3H]-L-glutamate uptake in COS-7 cells expressing EAAT1; conditions: for inhibition of glutamate uptake (in words), EAAT1: COS cell culture
T2 construct: expressed in transfected cells; host or cells: COS-7 cells, pCMV5 construct, DEAE-dextran transient transfection
From the text: as §1, §2, §3, §4

[3] = molecular target: T3, human EAAT3 (Homo sapiens, UniProt P43005); assay: inhibition of [3H]-L-glutamate uptake in COS-7 cells expressing EAAT3; conditions: for inhibition of glutamate uptake (in words), EAAT3: COS cell culture
T3 construct: isolation of Clone GT11B containing a full-length open reading frame encoding EAAT3; expressed in transfected cells; host or cells: COS-7 cells, pCMV5 construct, DEAE-dextran transient transfection
T3 sequence (P43005 1-524): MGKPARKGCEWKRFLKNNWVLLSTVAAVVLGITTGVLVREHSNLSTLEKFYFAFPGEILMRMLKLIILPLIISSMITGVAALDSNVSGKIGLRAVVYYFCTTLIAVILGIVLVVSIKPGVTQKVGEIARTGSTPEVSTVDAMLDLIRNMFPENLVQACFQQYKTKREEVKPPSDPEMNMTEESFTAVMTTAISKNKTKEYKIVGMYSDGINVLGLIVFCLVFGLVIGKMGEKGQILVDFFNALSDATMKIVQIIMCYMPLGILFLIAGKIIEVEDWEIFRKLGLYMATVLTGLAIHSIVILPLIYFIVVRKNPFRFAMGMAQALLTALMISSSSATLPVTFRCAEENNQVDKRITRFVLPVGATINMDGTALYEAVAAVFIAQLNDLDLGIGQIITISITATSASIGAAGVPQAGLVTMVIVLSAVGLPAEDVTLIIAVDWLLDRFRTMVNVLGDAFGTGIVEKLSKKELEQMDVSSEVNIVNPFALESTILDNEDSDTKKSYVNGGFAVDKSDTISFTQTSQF
From the text: as §1, §2, §3, §4

[4] = molecular target: T4, human ASCT1 neutral amino acid transporter (Homo sapiens, UniProt P43007); assay: amino acid-induced inward current in voltage-clamped ASCT1-injected Xenopus oocytes; conditions: for Imax (maximal current): L-stereoisomer, current normalized to the maximum response obtained with L-alanine, mean ± standard error; for effect on membrane current of ASCT1-injected oocytes: much higher concentrations (about 1 mM)
T4 construct: expressed in transfected cells; host or cells: Xenopus laevis oocytes injected with in vitro transcribed RNA (pOTV vector)
T4 sequence (P43007 1-532): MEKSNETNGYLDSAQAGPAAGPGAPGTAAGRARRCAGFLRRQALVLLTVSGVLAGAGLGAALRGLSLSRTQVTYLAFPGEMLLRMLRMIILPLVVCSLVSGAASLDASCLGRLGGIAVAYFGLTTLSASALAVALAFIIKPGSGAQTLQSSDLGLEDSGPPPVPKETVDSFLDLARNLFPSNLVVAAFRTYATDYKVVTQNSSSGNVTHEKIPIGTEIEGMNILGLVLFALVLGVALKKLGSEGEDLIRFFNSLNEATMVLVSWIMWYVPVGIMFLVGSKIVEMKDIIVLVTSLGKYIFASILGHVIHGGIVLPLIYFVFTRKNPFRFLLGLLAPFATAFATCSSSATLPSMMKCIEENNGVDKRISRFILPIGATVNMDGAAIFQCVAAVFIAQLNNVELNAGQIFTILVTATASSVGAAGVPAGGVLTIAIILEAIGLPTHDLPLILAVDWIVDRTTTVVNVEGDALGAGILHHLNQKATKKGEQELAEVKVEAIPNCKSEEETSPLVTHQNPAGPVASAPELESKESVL
From the text: Following the PCR, the product of the amplification reaction was purified using standard techniques (Saiki et al., 1988, Science 239: 487-491). The DNA then digested with the restriction enzymes KpnI and XbaI and then cloned into the polylinker of an oocyte transcription vector (POTV; see Wang el al., 1991, Nature 352: 729-731) that had been digested with KpnI and XbaI. Synthetic RNA was then transcribed in vitro from this clone using the method of Kavanaugh et al. (1992, J. Biol. Chem. 267: 22007-22009) employing bacteriophage T7 RNA polymerase (New England Biolabs, Beverly, Mass.). 20-50 nL of ASCT1 RNA (at a concentration of about 400 μg/mL) was injected into defolliculated stage V-VI Xenopus oocytes excised from female Xenopus laevis anesthetized by immersion in 3-aminobenzoic acid for 60 min. Excised oocytes were treated with collagenase II (Sigma Chemical Co., St. Louis, Mo.) in calcium-free Barth's saline solution [comprising 88 mM NaCl, 1 mM KCl, 2.4 mM NaHCO3, 0.82 mM MgSO4, 7.5 mM Tris-HCl (pH 7.6), 50 U/mL Nystatin (Sigma) and 0.1 mg/mL gentamycin (Sigma)] for 60 min., and then incubated overnight at 15° C. in 50% Leibowitz's L-15 media (Grand Island Biological Co. (GIBCO), Long Island, N.Y.). After overnight incubation the oocytes were mechanically defolliculated and then were injected with ASCT-1 RNA and incubated at 19° C. for 48 h (see Kim el al., 1991, Nature 352: 725-728 for further details of Xenopus oocyte preparation and microinjection).
Amino acid transport in such oocytes was assayed using [^3H] alanine, [^3H] serine or [^35S] cysteine (obtained from New England Nuclear, Boston, Mass.). Briefly, microinjected oocytes were […] at −60 mV using a Dagan TEV-200 clamp amplifier with an Axon Instruments (Foster City, Calif.) TL-1 A/D interface controlled by pCLAMP software (Axon Instruments) (see Kavanaugh et al., 1992, J. Biol. Chem. 267: 22007-22009 for a detailed review of this methodology) and continuously superfused with ND-96 buffer (consisting of 96 mM NaCl/2 mM KCl/1.8 mM CaCl2/1 mM MgCl2/5 mM HEPES, pH 7.5). For transport measurements, this solution was changed to a solution containing varying concentrations of the radiolabeled amino acids in ND-96 buffer.
More detailed analyses of ithe kinetics of amino acid influx were performed by least squares linear regression analysis of induced inward current ([I]) plotted as a function of substrate amino acid concentration ([S]), using the equation shown in the legend of Table II.

T2 sequence (P43003 whole entry): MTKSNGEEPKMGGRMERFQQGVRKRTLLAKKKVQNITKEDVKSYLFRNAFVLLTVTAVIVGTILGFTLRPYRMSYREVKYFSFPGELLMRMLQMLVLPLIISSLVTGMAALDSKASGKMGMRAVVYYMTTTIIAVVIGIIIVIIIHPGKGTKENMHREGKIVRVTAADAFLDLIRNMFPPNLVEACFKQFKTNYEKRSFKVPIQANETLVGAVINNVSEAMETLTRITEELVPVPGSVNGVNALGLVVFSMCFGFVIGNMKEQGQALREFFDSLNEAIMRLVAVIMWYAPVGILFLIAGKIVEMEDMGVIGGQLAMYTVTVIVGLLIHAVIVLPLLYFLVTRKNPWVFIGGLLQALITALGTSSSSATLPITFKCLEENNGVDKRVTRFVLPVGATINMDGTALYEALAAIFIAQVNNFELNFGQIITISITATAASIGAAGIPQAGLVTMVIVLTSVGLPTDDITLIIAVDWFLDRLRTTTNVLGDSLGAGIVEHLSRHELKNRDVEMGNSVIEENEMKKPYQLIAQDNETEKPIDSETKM
T1 sequence (P43004 whole entry): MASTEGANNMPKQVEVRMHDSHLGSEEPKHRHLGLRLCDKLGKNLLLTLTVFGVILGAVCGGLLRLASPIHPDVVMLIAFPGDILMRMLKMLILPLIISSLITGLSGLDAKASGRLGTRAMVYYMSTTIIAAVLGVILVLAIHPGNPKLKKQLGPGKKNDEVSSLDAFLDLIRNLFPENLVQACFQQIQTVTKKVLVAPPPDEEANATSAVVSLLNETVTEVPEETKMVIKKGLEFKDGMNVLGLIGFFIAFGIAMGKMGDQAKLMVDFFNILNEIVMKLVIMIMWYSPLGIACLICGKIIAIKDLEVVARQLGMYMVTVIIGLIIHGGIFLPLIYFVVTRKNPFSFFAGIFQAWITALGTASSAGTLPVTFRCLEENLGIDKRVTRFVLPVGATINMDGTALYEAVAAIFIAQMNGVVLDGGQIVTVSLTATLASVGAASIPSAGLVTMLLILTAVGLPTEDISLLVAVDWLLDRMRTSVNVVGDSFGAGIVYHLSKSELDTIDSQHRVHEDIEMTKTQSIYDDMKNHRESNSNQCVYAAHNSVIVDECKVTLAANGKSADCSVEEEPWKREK

Imax (maximal current) [4]: 1.4 ± 0.03
Compound: C[C@@H](O)[C@H](N)C(=O)O [Threonine]

Imax (maximal current) [4]: 0.6 ± 0.11
Compound: CC(C)[C@H](N)C(=O)O [Valine]

effect on membrane current of ASCT1-injected oocytes [4]: had no effect
Compound: NC(=O)C[C@H](N)C(=O)O [asparagine]

inhibition of glutamate uptake (in words), EAAT2 [1]: ineffective | inhibition of glutamate uptake (in words), EAAT1 [2]: ineffective | inhibition of glutamate uptake (in words), EAAT3 [3]: ineffective
Compound: NC1(C(=O)O)CC(C(=O)O)C1 (stereo not drawn) [cis-1-aminocyclobutane-1,3-dicarboxylate]

effect on membrane current of ASCT1-injected oocytes [4]: had no effect
Compound: NCC(=O)O [glycine]

effect on membrane current of ASCT1-injected oocytes [4]: had no effect
Compound: CC(C)C[C@H](N)C(=O)O [leucine]

effect on membrane current of ASCT1-injected oocytes [4]: had no effect
Compound: CSCC[C@H](N)C(=O)O [methionine]

effect on membrane current of ASCT1-injected oocytes [4]: had no effect
Compound: O=C(O)[C@@H]1CCCN1 [proline]

Ki ([1]; uptake of 1 μM [3H]-L-glutamate, [S] << Km, Ki does not differ significantly from measured IC50, read-out: Ki, glutamate uptake inhibition constant, EAAT2): 156 ± 37 µM | Ki ([2]; uptake of 1 μM [3H]-L-glutamate, [S] << Km, Ki does not differ significantly from measured IC50, read-out: Ki, glutamate uptake inhibition constant, EAAT1): 297 ± 118 µM | Ki ([3]; uptake of 1 μM [3H]-L-glutamate, [S] << Km, Ki does not differ significantly from measured IC50, read-out: Ki, glutamate uptake inhibition constant, EAAT3): 307 ± 48 µM
Compound: NC(CC(=O)O)CC(=O)O [β-glutamate]

Second part, the compound before the results:

Compound: N[C@@H](CSS(=O)(=O)O)C(=O)O [S-sulfo-L-cysteine]
inhibition of glutamate uptake (in words), EAAT2 [1]: ineffective | inhibition of glutamate uptake (in words), EAAT1 [2]: ineffective | inhibition of glutamate uptake (in words), EAAT3 [3]: ineffective

Compound: N[C@@H](COS(=O)(=O)O)C(=O)O [SOS, L-serine-O-sulfate]
Ki [1]: 1160 ± 275 µM | Ki [2]: 107 ± 8 µM | Ki [3]: 150 ± 52 µM

Compound: N[C@H](C(=O)O)[C@H](O)C(=O)O [THA, L-threo-β-hydroxyaspartate]
Ki ([1]; read-out: Ki, glutamate uptake inhibition constant, EAAT2): 19 ± 6 µM | Ki ([2]; read-out: Ki, glutamate uptake inhibition constant, EAAT1): 32 ± 8 µM | Ki ([3]; read-out: Ki, glutamate uptake inhibition constant, EAAT3): 25 ± 5 µM

Compound: N=C(N)NCCC[C@H](N)C(=O)O [arginine]
effect on membrane current of ASCT1-injected oocytes [4]: had no effect

Compound: N[C@@H](Cn1oc(=O)[nH]c1=O)C(=O)O [quisqualate]
inhibition of glutamate uptake (in words), EAAT2 [1]: ineffective | inhibition of glutamate uptake (in words), EAAT1 [2]: ineffective | inhibition of glutamate uptake (in words), EAAT3 [3]: ineffective

Compound: NC(CCCC(=O)O)C(=O)O (stereo not drawn) [α-aminoadipate]
inhibition of glutamate uptake (in words), EAAT2 [1]: only low potency | inhibition of glutamate uptake (in words), EAAT1 [2]: only low potency | inhibition of glutamate uptake (in words), EAAT3 [3]: only low potency

Source: patent US6537803B1, “Amino acid transporters and uses” (Oregon Health Sciences University, priority 1993, dated 2003)
